Experimental data from PubChem BioAssay AID743317 (Broad Institute, 2014).
Inconclusive results are not listed. Active and inactive are the calls of the source.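 The calls were made as follows: active = fitted curve reaches 40% activation at or below the top valid dose, and every replicate test is called active; inconclusive = replicate tests disagree, some active and some inactive; inactive = all replicate tests inactive, including activity in the wrong direction.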

target: Endoplasmic reticulum aminopeptidase 1 (Homo sapiens) (UniProt Q9NZ08); experiment: ERAP1 aminopeptidase activity change, dose response, biochemical, fluorescence, cherry-pick (AID 743317); settings: ERAP1 enzyme, Leu-AMC fluorescence, 60 min
Sequence (Q9NZ08 whole entry, looked up): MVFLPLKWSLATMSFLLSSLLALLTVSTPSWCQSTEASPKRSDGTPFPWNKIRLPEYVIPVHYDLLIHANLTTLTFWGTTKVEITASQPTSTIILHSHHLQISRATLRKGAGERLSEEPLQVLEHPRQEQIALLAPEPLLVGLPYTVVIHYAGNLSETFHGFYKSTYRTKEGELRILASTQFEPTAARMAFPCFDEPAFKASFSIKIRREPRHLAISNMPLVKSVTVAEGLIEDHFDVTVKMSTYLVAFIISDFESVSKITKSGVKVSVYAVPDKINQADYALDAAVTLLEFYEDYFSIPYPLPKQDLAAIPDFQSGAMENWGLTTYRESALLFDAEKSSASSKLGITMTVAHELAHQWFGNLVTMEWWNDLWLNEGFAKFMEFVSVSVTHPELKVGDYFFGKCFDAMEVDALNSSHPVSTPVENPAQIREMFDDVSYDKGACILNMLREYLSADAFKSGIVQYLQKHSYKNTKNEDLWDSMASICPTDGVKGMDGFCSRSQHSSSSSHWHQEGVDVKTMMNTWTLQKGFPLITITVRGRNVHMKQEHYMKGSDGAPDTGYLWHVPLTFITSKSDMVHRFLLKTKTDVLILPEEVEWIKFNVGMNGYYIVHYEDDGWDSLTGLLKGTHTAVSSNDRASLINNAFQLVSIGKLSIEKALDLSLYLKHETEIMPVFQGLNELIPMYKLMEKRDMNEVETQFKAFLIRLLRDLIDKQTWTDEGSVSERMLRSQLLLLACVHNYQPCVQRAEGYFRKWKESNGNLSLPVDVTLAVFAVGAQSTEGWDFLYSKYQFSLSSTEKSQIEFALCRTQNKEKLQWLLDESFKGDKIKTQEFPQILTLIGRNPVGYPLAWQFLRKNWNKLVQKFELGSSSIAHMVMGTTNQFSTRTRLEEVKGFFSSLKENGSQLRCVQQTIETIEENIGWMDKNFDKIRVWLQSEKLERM

AC40	Structure (SMILES)
364 nM	O=C(C[C@@H]1CC[C@@H]2[C@H](COC[C@H](O)CN2C(=O)Nc2cccc(Cl)c2)O1)N1CCCCC1
935 nM	C[C@H](CO)N1C[C@H](C)[C@H](CN(C)C)Oc2c(NC(=O)Nc3ccc(C(F)(F)F)cc3)cccc2C1=O
563 nM	C[C@@H]1CCCCO[C@@H](CN(C)Cc2ccc3c(c2)OCO3)[C@@H](C)CN([C@@H](C)CO)C(=O)c2cc(NS(=O)(=O)c3ccccc3)ccc2O1
2770 nM	Cc1noc(C)c1NC(=O)Nc1ccc2c(c1)C(=O)N([C@H](C)CO)C[C@@H](C)[C@@H](CN(C)Cc1ccc(C(F)(F)F)cc1)OCCCC[C@@H](C)O2
516 nM	C[C@@H]1CCCCO[C@@H](CN(C)C)[C@H](C)CN([C@@H](C)CO)C(=O)c2cc(NC(=O)Nc3ccc(C(F)(F)F)cc3)ccc2O1
770 nM	C[C@H]1CN([C@@H](C)CO)C(=O)c2cccc(NC(=O)Nc3ccc4c(c3)OCO4)c2O[C@@H]1CN(C)CC1CC1
1150 nM	COc1ccc(CN(C)C[C@@H]2OCCCC[C@@H](C)Oc3ccc(NS(=O)(=O)c4cccs4)cc3C(=O)N([C@H](C)CO)C[C@H]2C)cc1
1420 nM	CCCN(C)C[C@@H]1OCCCC[C@@H](C)Oc2ccc(NS(=O)(=O)c3ccc(C)cc3)cc2C(=O)N([C@H](C)CO)C[C@@H]1C
565 nM	C[C@H](CO)N1C[C@H](C)[C@H](CN(C)CC2CCCCC2)Oc2c(NC(=O)Nc3ccc(C(F)(F)F)cc3)cccc2C1=O
541 nM	C[C@H]1CN([C@@H](C)CO)C(=O)c2cccc(NC(=O)Nc3ccc(C(F)(F)F)cc3)c2O[C@@H]1CN(C)CC1CC1
812 nM	O=C(C[C@H]1CC[C@@H]2[C@H](COC[C@@H](O)CN2C(=O)Nc2cccc(Cl)c2)O1)N1CCCCC1
4290 nM	Cc1ccccc1-c1ccc2c(c1)O[C@@H](CN(C)Cc1ccc(C(=O)O)cc1)[C@@H](C)CN([C@H](C)CO)S2(=O)=O
1190 nM	COc1ccc(CN(C)C[C@@H]2OCCCC[C@H](C)Oc3ccc(NS(=O)(=O)c4cccs4)cc3C(=O)N([C@@H](C)CO)C[C@@H]2C)cc1

same assay, conditions: ERAP1 enzyme, Leu-AMC fluorescence, 60 min; at 11 µM (top of the series)

activity increase (activation)	Structure (SMILES)
-58.6% (inactive)	CCCc1cc(=O)oc2c(CN(CC)CC)c(O)c(Cl)cc12
-65.3% (inactive)	CCc1cc(=O)oc2c(CN3CCN(C)CC3)c(O)ccc12
-73.8% (inactive)	Cc1cc(=O)oc2c(CN3CCCC3)c(O)c(Cl)cc12
-67.1% (inactive)	C/C(=N\NC(=O)CC#N)c1cc2ccc(O)cc2oc1=O
-103% (inactive)	CC(C)[C@@H](C(=O)N[C@@H](CCc1ccc(O)cc1)C(=O)O)N(C)C(=O)[C@H](CO)NC(=O)[C@@H](O)[C@H](N)CCCCCCCCl
-107% (inactive)	CN(C)Cc1c(O)ccc2cc(-c3nc4ccccc4n3C)c(=O)oc12
-57.4% (inactive)	CCCCCCC[C@H](N)[C@H](O)C(=O)N(C)[C@@H](CCS(C)=O)C(=O)N[C@@H](Cc1ccc(O)cc1)C(=O)N[C@@H](Cc1ccc(O)cc1)C(=O)O (stereo not given in full)
